The results in this text go back to US20260055150A1, “GRAIL-1 PEPTIDE PRODUCTS AND METHODS” (REGENTS OF THE UNIVERSITY OF MICHIGAN, priority 2022, published 2026).

Where “and” joins values, the source holds several entries; their conditions need not be identical. Identical values can stand only once. Entries after “also recorded” stand apart in the source; their conditions may differ. Where a SMILES comes first, the peptide text is derived from it. Where no end group is shown, it is not given here.

The subject of series [1] is CpD cells. The series can be described thus: Clonogenic survival of mutant p53 driven CpD cells. As to conditions: for differential activity in reducing clonogenic survival of CpD cells: CpD versus CpA; for cytotoxic effect on either cell type: CpA and CpD cells. As to the method: The effects of different siRNAs (e.g., GRAIL Iso1-1, GRAIL Iso1-2, TP53) on clonogenic survival of different BE (CpA, CpD) and EAC (Flo1, OE19, and OE33) cell lines were determined by normalizing the survival fraction of control siRNA-treated group as 1.
For this purpose, two BE cell lines were used, CpA (with wild type p53) and CpD (carrying mutant p53). […] In brief, 3000 cells in 100 μl of complete medium were plated per well in a 96-well plate 24 h prior to peptide treatments. Cells were then either treated with vehicle (dH2O) or serial dilutions of peptides. Two days following treatments MTT labelling reagent was added, and cells were allowed to form formazan crystals for 2 h. Following, 100 μl of solubilizing agent (10% SDS in 0.01M HCl) was added per well, and plates were incubated at 37° C. overnight. The optical density (OD) of the solubilized formazan was spectrophotometrically quantified using a plate reader at 570 nm with a reference at 650 nm. Data represent the mean (±standard error, SE) performed in quadruplicate, and percent cell viabilities are plotted in semi-logarithmic scale relative to water treated control.

Series [2] has as its system EAC cells (Flo1, OE19, and OE33). The series can be described thus: Cell viability (MTT) of EAC cell lines. Format: cell-based.
Series [3] relates to DNAJA1. The series can be described thus: Peptide pull down assay with recombinant DNAJA1. The class given is binding. As to conditions: NHS activated Sepharose beads, Western blot. As to the method:
Briefly, 1 mg of peptide was dissolved in 1 ml of coupling buffer (0.2 M NaHCO3, 0.5 M NaCl, pH 8.3). Peptides were conjugated to NHS-activated resin by incubating 100 μL NHS bead slurry with 200 μL peptide solution for 2 hours at room temperature (RT). Unbound sites were blocked with quenching buffer (0.5 M ethanolamine, 500 mM NaCl). Resin peptide conjugates were washed once with low pH (0.1 M acetate, 0.5 M NaCl, pH 5) and high pH buffer (0.1 M Tris HCl, pH 8.0) and equilibrated with lysis buffer 50 mM HEPES, 150 mM NaCl, 0.2% NP-40, protease inhibitor cocktail, pH 7.5. Purified HSP40 protein was procured from […] (cat #). Purified protein was diluted in lysis buffer. Approximately 40 nM protein was incubated with peptide coupled to NHS beads and incubated for 2 hours at RT. Unbound proteins were removed by centrifugation and beads were washed with washing buffer (50 mM HEPES, 300 mM NaCl, 0.2% NP-40, pH 7.5). Bound proteins were obtained by boiling beads with 1× Laemmli buffer. […] To confirm, thermal stability assays (TSA) were performed. TSA was carried out using QuantStudio™ 7 Flex Real-Time PCR System. […] The plates were covered with optical foil during the reaction in the thermal cycler. […] The Instrument was programmed in the melt curve mode with ROX reagent detection and Fast speed run. The reporter was selected as Rox and none for quencher. Each melt curve was programmed as follows: 25° C. for 15 sec, followed by increase in temperature at the speed of 0.03° C./s up to 95° C. and finally 95° C. for 15 sec. The raw data was exported to Protein Thermal Shift™ Software (Applied Biosystems) for analysis. Melting temperature was calculated using the melt curve. […] To further test functionality, an in vitro ATPase activity assay was performed using purified Hsp40 and Hsp70 proteins. […] Pep 1 was redesignated “Pep J”.
Background: In western blotting, separated proteins are transferred to a membrane and probed.

The subject of series [4] is chaperone activity (Fluc-DM). The series can be described thus: Fluc-DM luciferase reporter of cellular chaperone activity. The class given is cell-based. As to conditions: 20 μM peptide, overnight. As to the method:
As Frag J/J^m overexpression locks DNAJA1-Hsp70 complex, whether such interactions inhibit chaperone activity was tested. […] To understand the in vivo effects of the Frag J or different peptides in multiple cell lines including BE/EAC and p53 isogenic lines, cells were first transfected/co-transfected with Fluc-DM±Frag J constructs. Twenty-four hours post-transfection, cells were either subjected to luciferase assay or for peptide treatment studies, cells were treated with 20 μM concentrations of different peptides. After overnight incubation, cell lysates were prepared using lysis buffer provided in the luciferase assay kit in Promega luciferase assay system (cat. E1910) followed by standardized protocol as provided by the manufacturer. […] Such observation was confirmed by an in vitro chaperone activity assay using recombinant purified Hsp40-Hsp70 complex (FIG. 6D). In Fluc-DM study, loss of Fluc-DM levels following Frag J/J^m overexpression (FIG. 6E) was noted as shown using immunoblotting. Such effects were independent of p53 mutation status.
Background: A reporter such as luciferase makes a cellular process visible.

For series [5], the system named is mutant p53-R175H. The series is described as follows: Immunoblotting of mutant p53 steady state levels in CpD cells. Conditions: CpD cells transfected with DDK-tagged p53R175H; peptides 20 mM for 6 h. The class given is cell-based. As to the method: CpD cells overexpressing mutant p53 were transfected with DDK-tagged p53R175H mutant. Cells were then treated with indicated peptides ([…] for 6 h).
Consequently, the effect of all thirteen peptides on mutant p53 steady state levels was tested.

Series [6] relates to mutant p53 and EGFR. The series is described as follows: Immunoblotting of mutant p53 and EGFR levels in BE/EAC cells. Format: cell-based.
Series [7] deals with mutant p53. As to the method: The effect of Pep J and simvastatin treatment either alone or in combination on wild type and mutant p53 was tested in BE/EAC cells present in ten established PDOs grown in vitro. Scrambled Pep J was used as a negative control. […] Different concentrations of Pep J (10-200 μM) and simvastatin (50-1000 nM) were tested as well as different treatment time periods (24-96 hours).
Organoid lysates were prepared for immunoblotting similar to FIG. 13G.

For series [8], the system named is patient-derived organoids (PDOs). The series is described as follows: Growth and survival of patient derived organoids in vitro. Format: cell-based, human.
For series [9], the system named is OE33, OE 19 and Flo1 esophageal adenocarcinoma (EAC) cells. The series can be described thus: Radiosensitization clonogenic assay of EAC cells. Format: cell-based. Conditions: 20 μM for 24 hours, then 0-8 Gy. As to the method:
OE33, OE 19 and Flo1 esophageal adenocarcinoma (EAC) cells were plated and after overnight incubation treated with 20 μM of Pep J for an additional 24 hours. Following, cells were irradiated with different doses (0, 2, 4, 6, 8 Gy) of radiation. Cells were then incubated for 24 hours prior to plating at a clonal density to perform clonogenic assays.

Series [10] has as its system OE19. As to conditions: OE19 cells.
Series [11] concerns DNAJA1. The series can be described thus: Thermal stability assay (TSA) with purified DNAJA1. Conditions: TAT-less peptides, 0-500 μM. The class given is binding. As to the method:
(§1) Briefly, 1 mg of peptide was dissolved in 1 ml of coupling buffer (0.2 M NaHCO3, 0.5 M NaCl, pH 8.3). Peptides were conjugated to NHS-activated resin by incubating 100 μL NHS bead slurry with 200 μL peptide solution for 2 hours at room temperature (RT). Unbound sites were blocked with quenching buffer (0.5 M ethanolamine, 500 mM NaCl). Resin peptide conjugates were washed once with low pH (0.1 M acetate, 0.5 M NaCl, pH 5) and high pH buffer (0.1 M Tris HCl, pH 8.0) and equilibrated with lysis buffer 50 mM HEPES, 150 mM NaCl, 0.2% NP-40, protease inhibitor cocktail, pH 7.5. Purified HSP40 protein was procured from Boston Scientific (cat #). Purified protein was diluted in lysis buffer. Approximately 40 nM protein was incubated with peptide coupled to NHS beads and incubated for 2 hours at RT. Unbound proteins were removed by centrifugation and beads were washed with washing buffer (50 mM HEPES, 300 mM NaCl, 0.2% NP-40, pH 7.5). Bound proteins were obtained by boiling beads with 1× Laemmli buffer. […] To confirm, thermal stability assays (TSA) were performed. TSA was carried out using QuantStudio™ 7 Flex Real-Time PCR System. […] The plates were covered with optical foil during the reaction in the thermal cycler. […] The Instrument was programmed in the melt curve mode with ROX reagent detection and Fast speed run. […] Melting temperature was calculated using the melt curve. […]

Series [12] has as its target Hsp40-Hsp70 (Homo sapiens, UniProt P31689). The series is described as follows: In vitro Hsp40-Hsp70 ATPase (chaperone) activity assay. The class given is biochemical. As to conditions: TAT-less peptides, dose-dependent. As to the method:
as §1

As for `CC[C@H](C)[C@H](NC(=O)[C@H](CC(=O)O)NC(=O)[C@H](CS)NC(=O)[C@H](CCCCN)NC(=O)[C@H](CS)NC(=O)[C@H](CCSC)NC(=O)[C@@H]1CCCN1C(=O)[C@H](CCC(N)=O)NC(=O)[C@@H]1CCCN1C(=O)[C@H](CCCNC(=N)N)NC(=O)[C@H](CCCNC(=N)N)NC(=O)[C@H](CCCNC(=N)N)NC(=O)[C@H](CCC(N)=O)NC(=O)[C@H](CCCNC(=N)N)NC(=O)[C@H](CCCNC(=N)N)NC(=O)[C@H](CCCCN)NC(=O)[C@H](CCCCN)NC(=O)[C@H](CCCNC(=N)N)NC(=O)CN)C(=O)N[C@@H](CC(C)C)C(=O)N[C@@H](CCCCN)C(=O)N[C@@H](C)C(=O)O` [Pep 1] (H-GRKKRRQRRRPQPMCKCDILKA-OH; N-terminus and C-terminus assumed), the “differential activity in reducing clonogenic survival of CpD cells” value in [1] is given as “better differential activity”. Besides, the “effect on EAC cell lines” value in series [2] is listed as “relatively more resistant”. Moreover, the “interaction with purified DNAJA1 in peptide pull down” value (“interaction with purified DNAJA1” for short) in [3] was “showed interactions”. Moreover, the “inhibition of chaperone activity (Fluc-DM)” value (shortened to “inhibition … (Fluc-DM)”) in series [4] is “inhibition of chaperone activity; also recorded: capable of inhibiting chaperone activity”. Also, in [5], the “mutant p53-R175H protein levels” value is given as “highly effective; also recorded: decrease in mutant p53 levels”. For the same compound, the “impact on p53 and EGFR levels in wild type p53 cells” value in series [6] (CpA cells) was “no major impact”. In addition, in series [6] (CpD and OE33 cells), the EGFR levels entry is recorded as “reduces” and the “mutant p53 levels” value is “reduces”. Besides, the “mutant p53 (nuclear) levels by immunofluorescence” value in series [7] (FFPE fixed and sectioned organoids, 72 h, listed as Pep J) is listed as “significant reduction”. In addition, the “reduction in mutant p53 levels” value in series [7] (immunoblotting of whole PDO lysis, 72 hours of treatment) is 50%. In addition, the “misfolded mutant p53 levels in PDOs” value in [7] (within 24 h post treatment) was “loss of misfolded mutant p53”. The “killing of PDOs” value in [8] (7 days treatment in vitro) is “killed PDOs”. Further, the “size of organoid growth” value in series [8] (after 72 h of treatment) was “No major effect”. Besides, the radiosensitization entry in [9] was “radiosensitized”.
Regarding `N=C(N)NCCC[C@H](NC(=O)CN)C(=O)N[C@@H](CCCCN)C(=O)N[C@@H](CCCCN)C(=O)N[C@@H](CCCNC(=N)N)C(=O)N[C@@H](CCCNC(=N)N)C(=O)N[C@@H](CCC(N)=O)C(=O)N[C@@H](CCCNC(=N)N)C(=O)N[C@@H](CCCNC(=N)N)C(=O)N[C@@H](CCCNC(=N)N)C(=O)N[C@@H](CCCNC(=N)N)C(=O)N1CCC[C@H]1C(=O)N[C@@H](CCC(N)=O)C(=O)O` [Pep 13, GRKKRRQRRRRPQ], in [1], the “cytotoxic effect on either cell type” value is “least cytotoxic effect”.
In the case of CKVPPWR [Pep 28, TAT-less Pep 9], the “interaction with purified DNAJA1” value in [3] was “bound effectively”.
Consider GRKKRRQRRRPQCKVPPWR [Pep 9], for which the “differential activity in reducing clonogenic survival of CpD cells” value in series [1] is recorded as “better differential activity”. For the same compound, in series [4], the “inhibition … (Fluc-DM)” value is “inhibition of chaperone activity; also recorded: capable of inhibiting chaperone activity”. The “mutant p53-R175H protein levels” value in series [5] is reported as “highly effective; also recorded: decrease in mutant p53 levels”.
As for GRKKRRQRRRPQCKVPPWRQ [Pep 8], the “mutant p53-R175H protein levels” value in [5] is “decrease in mutant p53 levels”.
Take GRKKRRQRRRPQLGIEVDVEDG [Pep 12]: the “cytotoxic effect on either cell type” value in [1] was “least cytotoxic effect; also recorded: list effects”.
For the compound GRKKRRQRRRPQPMCKATPWRE [Pep 4], in series [5], the “mutant p53-R175H protein levels” value was “decrease in mutant p53 levels”.
Same read-out and setting: then GRKKRRQRRRPQPMCKVPPWR [Pep 7], with “decrease in mutant p53 levels”.
Turning to GRKKRRQRRRPQPMCKVPPWRQ [Pep 5], the “differential activity in reducing clonogenic survival of CpD cells” value in series [1] is “better differential activity”. Further, the IC50 in series [1] (read-out: IC50, clonogenic survival, CpD cells (mutant p53)) is 11.2 µM and ~11 µM; in series [10], 19.4 µM. Moreover, the “effect on EAC cell lines” value in series [2] is “relatively more resistant”. In addition, in series [4], the “inhibition … (Fluc-DM)” value is given as “inhibition of chaperone activity; also recorded: capable of inhibiting chaperone activity”. Besides, the “mutant p53-R175H protein levels” value in series [5] was “highly effective; also recorded: decrease in mutant p53 levels”.
Turning to “LGIEVDVEDG [Pep 29, TAT-less Pep 12; Frag J amino acids 11-20]”, in series [3], the “interaction with purified DNAJA1” value is recorded as “no interaction”.
On to “PMCKCDILKA [Pep 26, TAT-less Pep 1; Frag J amino acids 1-10]”, for which the “interaction with purified DNAJA1” value in series [3] is “bound effectively”. In addition, the “thermal stability assay result with DNAJA1” value in series [11] is “showed the best result; also recorded: better interactor”. Besides, the “inhibition of Hsp40-Hsp70 chaperoning (ATPase) activity” value in [12] is on record as “best efficacy; also recorded: most effect agent”.
With PMCKVPPWRQ [Pep 27, TAT-less Pep 5], in [3], the “interaction with purified DNAJA1” value is “bound effectively”.

As a reminder, the IC50 is the point on the concentration scale where inhibition reaches its midpoint.
